Data as given in patent US20250049904A1, “IMMUNOSTIMULATORY COMPOSITIONS” (VICTORIA LINK LIMITED, priority 2021, published 2025).

How the values were obtained:
Type in all cases: in vivo, C57BL/6 mice
[1] = system: tissue-resident memory T cells (TRM cells); experiment: LPX-mRNA vaccination of mice i.v.; antigen-specific TRM, TEM and TCM cells in liver and spleen by flow cytometry; details: agonist in LPX-mOVA vaccine, OT-I transfer, liver 30 days later; for proportion of liver TRM among all vaccine-induced antigen-specific T cells (TRM cell-inducing capability): relative to α-GalCer vaccine
[2] = system: liver TRM cells; experiment: LNP-mRNA vaccines, prime and boost; TRM cells in liver and spleen; details: i.m. and i.v.
Procedure: Vaccines were prepared with mRNA encoding OVA encapsulated in LNPs (LNP-mOVA-CI058). Groups of mice (n=5) were vaccinated twice, with an interval of either two weeks, or eight weeks, and then liver and spleen were collected for analysis of T cell responses 28 days after the last dose. (A) Percentages of antigen-specific TRM cells, TEM cells and TCM cells are shown for liver. Black bars: TRM cells; white bars: TEM cells; grey bars: TCM cells. (B) Percentages of antigen-specific TRM cells, TEM cells and TCM cells are shown for spleen. Black bars: TRM cells; white bars: TEM cells; grey bars: TCM cells. (C) Mean number of TRM cells in liver for each treatment group (±SEM); dots represent individual mice. *P<0.05.
Vaccines were prepared with mRNA encoding OVA encapsulated in LNPs (LNP-mOVA-CI536). Groups (n=9-10) of naïve C57BL/6 mice (i.e., no OT-I transfer) were vaccinated once, or twice with an interval of two weeks, with the liver and spleen collected for analysis of T cell responses 28 days after the last dose. (A) Numbers of antigen-specific TRM cells for liver. […] Data were log transformed and analysed by One-way ANOVA with Tukey's post test **P<0.01, ***P<0.001, ****P<0.0001. […]
LNP-mRNA vaccines comprising an ionizable lipid are an established formulation strategy to deliver mRNA vaccines safely and effectively. Therefore, the capacity of LNP-mRNA vaccines containing CI536 and the ionizable lipid DLin-MC3-DMA to stimulate liver TRM was evaluated. […] The memory T cell responses were assessed 28 days after the prime and boost so the impact of the second dose could be assessed. […]
Lymphocytes were stained with monoclonal antibodies for: CD8a (53-6.7), Ly5.1 (A20), CD44 (IM7), CXCR6 (SA051D1), CX3CR1 (SA011F11), from BioLegend (Australian Biosearch, Karrinyup, WA. Australia), and CD62L (MEL-14) and CD69 (H1.2F3), from eBioscience (Jomar Life Research, Scoresby, VIC, Australia). […] Single-color positive control samples were used to adjust compensation and cells were analyzed by flow cytometry on a LSR Fortessa (BD Biosciences), or LSRII SORP using Flowjo software (Tree Star Inc.).

[3] = system: tissue-resident memory T cells (TRM cells); experiment: LPX-mRNA vaccination of mice i.v.; antigen-specific TRM, TEM and TCM cells in liver and spleen by flow cytometry; details: LPX-mOVA vaccines i.v., OT-I cell transfer, 28 days after vaccination
Procedure: FIG. 1 provides a graphical representation showing that LPX-mRNA vaccines containing CI058 induce high levels of liver TRM cells. Liposomes were prepared with DOTMA and DOPE lipids and complexed with mRNA encoding chicken ovalbumin (OVA) to give vaccine LPX-mOVA. Additional vaccines were prepared by including either the prototypical NKT cell agonist α-GalCer (LPX-mOVA-α-GalCer) or the derivative CI058, which has BODIPY attached via an —S in the 6 position of the galactose (LPX-mOVA-CI058). Recipient C57BL/6 mice were transferred 50,000 naïve OVA-specific TCR-transgenic CD8+ T cells (OT-I cells) to enhance the precursor frequency of antigen-specific T cells to aid detection of vaccine-induced responses. A day later, groups of mice (n=5-6) were vaccinated intravenously (0.08 nmol) with the different vaccines; a naive mouse was left untreated. After 28 days, mice were killed and liver and spleen collected for analysis of induced T cell response by flow cytometry. Antigen-specific cells were identified using fluorescent MHC/peptide tetramers containing the targeted CD8^+ T cell epitope recognised by OT-I cells, and expression of Ly5.1, a congenic marker expressed by the OT-I mouse strain and not recipient C57BL/6 mice. The antigen-specific cells were further characterised as resident-memory T cells (TRM cells; CD8^+ Ly5.1^+ […] CD62L^low cells), effector memory T cells (TEM cells; CD8^+ Ly5.1^+ CD44^+ CD69^− CD62L^low cells) or central memory cells (TCM cells; CD8^+ Ly5.1^+ CD44^+ CD69^− CD62Lhigh cells). (A) Percentages of TRM, TEM and TCM OT-I cells in each treatment group in liver. Mean±SEM for each T cell subset are shown; statistical analysis relates only to pairwise comparisons of the percentage of TRM cells between the treatment groups. Black bars: TRM cells; white bars: TEM cells; grey bars: TCM cells. *P<0.05, **P<0.01, ***P<0.001, ****P<0.0001. One-way ANOVA. (B) Percentages of RM, TEM and TCM OT-I cells in each treatment group in spleen. (C) Mean number of TRM cells in liver for each treatment group (±SEM); dots represent individual mice. Black bars: TRM cells; white bars: TEM cells; grey bars: TCM cells. *P<0.05, **P<0.01, ***P<0.001, ****P<0.0001. One-way ANOVA.
Dose response of LPX-mOVA-α-GalCer versus LPX-mOVA-CI058 vaccines. Analysis was in C57BL/6 mice, without transfer of OT-I cells, so endogenous T cell responses were monitored on a normal T cell repertoire. Groups of 5 mice were used, and vaccines were administered intravenously. After 28 days, mice were killed and liver tissue collected for analysis of induced T cell response by flow cytometry. Antigen-specific cells were identified using fluorescent MHC/peptide tetramers, and further characterised as resident-memory T cells (TRM CD8^+ CD44^+ CD69^+ CXCR6^+ CD49a^+ CD62L^low cells), effector memory T cells (TEM CD8^+ CD44^+ CD69^− KLRG1^+ CXCR3^+ CD62L^low cells) or central memory cells (TCM CD8^+ CD44^+ CD69^− CD62L^high cells). At the same timer, NKT cells in the liver were also evaluated using fluorescent CD1d/α-GalCer tetramers. These were characterised for expression of different markers of activation, including PD-1 (only the latter is shown here). White circles: LPX-mOVA-α-GalCer; black circles: LPX-mOVA-CI058. (A) Graph showing mean number of TRM cells in liver for each treatment group (±SEM) overdose range. ****P<0.0001. (B) Graph showing mean level of expression of the “invariant” NKT cell-associated TCR for each treatment group (±SEM), defined as level of binding of fluorescent CD1d/α-GalCer tetramers and expressed as mean fluorescence index. ****P<0.0001 (C) Graph showing mean level of expression of PD-1 on NKT cells for each treatment group (±SEM). **P<0.01
To examine whether a prodrug mechanism is involved in enhanced TRM cell induction, LPX-mOVA-CI058 vaccines were compared to vaccines containing different NKT cell agonist prodrugs. […]

SMILES | overall TRM cell accumulation in the liver [1] | proportion of liver TRM among all vaccine-induced antigen-specific T cells (TRM cell-inducing capability) [1] | further results
CCCCCCCCCCCCCCCCCCCCCCCCCC(=O)N[C@@H](CO[C@H]1OC(CSCCCCCNC(=O)CCC2=C3C(C)=CC(C)=[N+]3[B-](F)(F)n3c(C)cc(C)c32)[C@H](O)C(O)[C@@H]1O)[C@H](O)[C@H](O)CCCCCCCCCCCCCC (stereo partly drawn) [CI534] | All but two of the 6'S-substituted agonists (CI534, CI540) | significantly enhanced relative to vaccines with α-GalCer | –
CCCCCCCCCCCCCCCCCCCCCCCCCC(=O)N[C@@H](CO[C@H]1O[C@H](CSCC(N)=O)[C@H](O)[C@H](O)[C@H]1O)[C@H](O)[C@H](O)CCCCCCCCCCCCCC [CI536, (2S,3S,4R)-1-(6-Deoxy-6-((2-amino-2-oxoethyl)thio)-α-D-galactopyranosyloxy)-2-hexacosanoylamino-3,4-octadecandiol] | – | – | proportion of TEM in the spleen ([2]; LNP with DLin-MC3-DMA, 28 days): higher proportion of TEM; proportion of TRM in liver compared to spleen ([2]; LNP with DLin-MC3-DMA, prime or prime-boost, no T cell transfer, 28 days): increased proportion of liver TRM in the liver as compared to the spleen; number of liver TRM ([2]; boosted groups, two-week interval, vs PBS control): highest number of liver TRM compared to PBS control group
CCCCCCCCCCCCCCCCCCCCCCCCCC(=O)N[C@@H](CO[C@H]1OC(CSCCCCCNC(=O)OCc2c3ccccc3cc3ccccc23)[C@H](O)C(O)[C@@H]1O)[C@H](O)[C@H](O)CCCCCCCCCCCCCC (stereo partly drawn) [CI540] | All but two of the 6'S-substituted agonists (CI534, CI540) | – | –
CCCCCCCCCCCCCCCCCCCCCCCCCC(=O)N[C@@H](CO[C@H]1OC(CN)[C@H](O)C(O)C1O)[C@H](O)[C@H](O)CCCCCCCCCCCCCC (stereo partly drawn) [CN168] | – | significantly enhanced relative to vaccines with α-GalCer | –
CCCCCCCCCCCCCCCCCCCCCCCCCC(=O)N[C@@H](CO[C@H]1O[C@H](CS)[C@H](O)[C@H](O)[C@H]1O)[C@H](O)[C@H](O)CCCCCCCCCCCCCC [CN237] | – | significantly enhanced relative to vaccines with α-GalCer | –
CCCCCCCCCCCCCCCCCCCCCCCCCC(=O)N[C@@H](CO[C@H]1O[C@H](CO)[C@H](O)[C@H](O)[C@H]1O)[C@H](O)[C@H](O)CCCCCCCCCCCCCC [α-GalCer, reference compound] | – | – | proportion of TRM cells among antigen-specific T cells in liver and spleen [3]: low proportions of TRM cells in liver and spleen
